# Source: patent US20190256491A1, “Methods For Treatment Of 16P11.2 Microdeletion Syndrome” (Massachusetts Institute of Technology, priority 2012, published 2019)
# Entries after “also recorded” stand apart in the source; their conditions may differ.
# How the values were obtained:
# [1] = system: chr7qF3 mutant mice (mouse model of human chr16p11.2 microdeletion) and WT mice; experiment: Inhibitory avoidance extinction (IAE) test; assay type: in vivo
# Protocol: Inhibitory avoidance extinction (IAE) tests were performed as previously described with modification ((Dolen et al., 2007)). Briefly, 4-6 weeks male mice were divided into four groups according to genotype and CTEP treatment: WT+vehicle, WT+CTEP, Mutant+vehicle, and Mutant+CTEP. CTEP or vehicle was administered by oral gavage every other day for 4 weeks. The last dose was given about 16-20 hours prior to the training session. IA tests were conducted in a two-chambered Perspex box consisting of a lighted side and a dark side separated by a trap door. On the training day, mice were habituated in the behavioral room for about 2 hours before training. During training, a mouse was placed into the lit side of the chamber and allowed to explore for about 30 seconds before the trap door was opened. The ensuing time spent by the animal in the light chamber before entering the dark chamber was recorded as latency. Immediately after fully entering the dark side of the camber, subjects were given about a 2 sec mild foot shock (about 0.4 mA) and allowed to spend an additional 60 sec before being returned to their home-cage. The acquisition and expression of fear memory was tested at about 6, about 24, and about 48 hours post training. The testing protocol used was the same as the training protocol. Latencies to enter the dark side of the chamber were recorded and used as measurement of IAE performance. Statistical significance was determined using two-way ANOVA and post hoc Student's t-tests.
# Mice were evaluated in another hippocampus-associated behavioral paradigm: inhibitory avoidance (IA). IA is a multi-phase test used to assay memory formation and extinction. During the training session (0 hr), mice were placed in the light chamber of a two-chamber box. After a variable latency in the light side, they entered the dark side of the box where about a 2 sec foot-shock was delivered. Acquisition and extinction of the fear memory, as measured by the latency to re-enter the dark chamber from the lighted side, was tested 6 hr (acquisition) as well as about 24 hr and about 48 hr (extinction) after training. Experiments were conducted to determine: (1) if chr7qF3 mice had deficits similar to Fmrl KO mice in the IA test, and (2) if deficits were present, could the mGluR5 inhibitor CTEP treatment ameliorate them. Mice were divided into four groups: WT+vehicle, WT+CTEP, Mut+vehicle, and Mut+CTEP. CTEP was given by the same dosing regime previously used with Fmrl KO mice ((Michalon et al., 2012)).
# [2] = system: pre-synaptic glutamate release, Schaffer collateral-CA1 synapse of hippocampal slices; experiment: Paired-pulse facilitation at beginning and end of DHPG-LTD experiment; set-up: species or system mouse; settings: both WT and mutant slices; independent of CHX treatment
# Protocol: (§1) Electrophysiological experiments were performed at the Schaffer collateral-CA1 synapse of hippocampal slices prepared from p28 to p35 male mice using experimental protocols as previously described ((Auerbach et al., 2011)). Dorsal hippocampal slices (400 μm thick) were used in all recordings. Input-output functions were determined by incrementally (10 μA to 100 μA) stimulating the Schaffer collaterals and recording the resulting fEPSP response. Paired-pulse facilitation was conducted by applying two stimulus pulses at varying inter-stimulus-intervals (ISI). Facilitation was measured by taking the ratio of the fEPSP slope in response to stimulus 2 to that of stimulus 1. […] For paired-pulse low frequency stimulation (PP-LFS) slices were incubated in ACSF containing APV (50 μM)±CHX for 30 min. mGluR5-LTD was then induced by application (20 min) of paired-pulse stimulation (50 ms ISI) at 1 Hz, and synaptic responses were recorded for an additional 60 min.
# To test whether the difference in CHX sensitivity between WT and mutant slices was due to a different pre-synaptic response to either DHPG treatment or PP-LFS induction, paired pulse facilitation at the beginning and end of DHPG-LTD experiment (FIGS. 2C and 2D) was assessed. […]
# [3] = system: mGluR-LTD at the Schaffer collateral-CA1 synapse of hippocampal slices; experiment: DHPG-LTD, hippocampal slice electrophysiology; set-up: species or system mouse; settings: CHX 60 μM, 40 min, DHPG 50 μM, 5 min
# Protocol: as §1
# (§2) Group I mGluR mediated synaptic plasticity was assessed. mGluR-LTD can be induced either by chemical induction by pharmacological stimulation of mGluRs (DHPG-LTD) or electrical induction by applying a series of paired pulses at about 50 ms interval (PP-LFS-LTD). […]
# [4] = system: mGluR5-LTD at the Schaffer collateral-CA1 synapse of hippocampal slices; experiment: PP-LFS LTD, hippocampal slice electrophysiology; set-up: species or system mouse; settings: ACSF with APV 50 μM ± CHX 30 min
# Protocol: as §1, §2
compound,measurement,setting,value
"Cc1nc(C#Cc2ccnc(Cl)c2)c(C)n1-c1ccc(OC(F)(F)F)cc1 [CTEP, 2-chloro-4-((2,5-dimethyl-1-(4-(trifluoromethoxy)phenyl)-1H-imidazol-4-yl)ethynyl)pyridine]",latency to re-enter the chamber,"[1]; Chr7qF3 mutant mice, 6, 24 and 48 hours post training, chronic oral gavage every other day for 4 weeks",significantly lengthens
same,extinction of fear memory at 48 hr,"[1]; Mut+CTEP, similar to the two wildtype groups",significant extinction
same,latency to re-enter the dark chamber at 6 hr (acquisition),"[1]; Mut+CTEP, to a level comparable to WT+vehicle mice",dramatically lengthened
same,effect on latency to re-enter the chamber,"[1]; WT mice, WT+CTEP vs WT+vehicle",no effect
same,extinction of fear memory at 48 hr,[1]; WT+CTEP,exhibited extinction
same,cognitive impairment / fear memory deficits in IAE test,"[1]; chr7qF3 mutant mice, chronic oral treatment",significantly ameliorates; also recorded: ameliorated
"N[C@H](C(=O)O)c1cc(O)cc(O)c1 [DHPG, S-3,5-dihydrozyphenylglycine]",paired pulse facilitation after DHPG treatment,[2],increased paired pulse facilitation
"C[C@@H]1C[C@@H]([C@H](O)CC2CC(=O)NC(=O)C2)C(=O)[C@@H](C)C1 [CHX, Cycloheximide]",effect on DHPG-induced LTD,[3]; WT slices,significantly blocked
same,effect on DHPG-induced LTD,[3]; chr7qF3 mutant slices,no effect; also recorded: remains unaffected
same,effect on PP-LFS LTD,[4]; WT slices,almost completely blocked
same,effect on PP-LFS LTD,[4]; chr7qF3 mutant slices,no effect; also recorded: remains unaffected
